According to patent US10174067B2, “Type of cytidine derivative and application thereof” (priority 2014, dated 2019):
Marks after values point to notes of the source that are not given here.

Columns and labels:
ICR mice = experiment: in vivo; settings: female ICR mice; single-dose ip
Procedure, shortened: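 Female SPF ICR mice received a single ip dose in ethanol/Cremophor EL/saline (5:5:90), with dose lowered after deaths and raised otherwise. MTD defined as dose causing no death, no >10% weight loss versus Day 0 and no significant side effects; daily weights and twice-daily clinical observation over 7-14 days.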

[1] = Procedure, shortened: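 Female SPF Balb/c nude mice bearing subcutaneous HCT-116 xenografts (3×10^6 cells, right hind limb), grouped at 60–150 mm^3, 6 per group; vehicle ethanol/Cremophor EL/saline 5:5:90. Body weight thrice weekly; tumours excised and weighed at sacrifice; Mean±SEM, unpaired t-test, P<0.05.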
[2] = test system: HCT-116 colon cancer xenografts; experiment: Tumor growth inhibition of HCT-116 colon cancer xenografts in tumor-bearing nude mice (tumor volume, TGI %, RTV, T/C %); type: in vivo, Balb/c Nude mice; settings: G10-G16 groups, single IP 400 mg/kg
Procedure, shortened: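 Nude mice inoculated with HCT-116 cells (about 3×10^7 cells/mL in serum-free medium). Tumor diameter measured three times weekly and volume computed as V=3/4π(D/2)^3. Activity expressed as TGI (%) and T/C (%) from relative tumor volume Vt/V0, with V0 taken at grouping and dosing start; P<0.05 significant.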

[3] = Day 1, G10-G16 groups, single IP 400 mg/kg, Mean±SEM
[4] = Day 2, G10-G16 groups, single IP 400 mg/kg, Mean±SEM
[5] = Day 4, G10-G16 groups, single IP 400 mg/kg, Mean±SEM
[6] = Day 7, G10-G16 groups, single IP 400 mg/kg, Mean±SEM
[7] = Day 9, G10-G16 groups, single IP 400 mg/kg, Mean±SEM
[8] = Day 11, G10-G16 groups, single IP 400 mg/kg, Mean±SEM
[9] = Day 14, G10-G16 groups, single IP 400 mg/kg, Mean±SEM
[10] = Day 16, G10-G16 groups, single IP 400 mg/kg, Mean±SEM
[11] = Day 18, G10-G16 groups, single IP 400 mg/kg, Mean±SEM
[12] = Day 21, G10-G16 groups, single IP 400 mg/kg, Mean±SEM
[13] = Day 23, G10-G16 groups, single IP 400 mg/kg, Mean±SEM
[14] = Day 25, G10-G16 groups, single IP 400 mg/kg, Mean±SEM
[15] = Day 28, G10-G16 groups, single IP 400 mg/kg, Mean±SEM
[16] = Day 30, G10-G16 groups, single IP 400 mg/kg, Mean±SEM

## CCCCOC(=O)Nc1nc(=O)n(C2OC(COC(=O)COc3nc(Cl)c(Cl)cc3Cl)C(O)C2(F)F)cc1Br (stereo not shown) [Compound G16]
ICR mice
  dose that could be tolerated (maximum tolerated dose, MTD): 400 mg/kg
[1]; Day 0, G10-G16 groups, single IP 400 mg/kg
  Weight change rate, Day 0: 0.00%
[1]; Day 0, G10-G16 groups, single IP 400 mg/kg, Mean±SEM
  Weight of mice, Day 0: 20.60 ± 0.23 g
[1]; [3]
  Weight change rate, Day 1: −0.99 ± 0.59%
  Weight of mice, Day 1: 20.40 ± 0.32 g
[1]; [4]
  Weight change rate, Day 2: −0.79 ± 0.84%
  Weight of mice, Day 2: 20.45 ± 0.30 g
[1]; [5]
  Weight change rate, Day 4: −0.38 ± 1.13%
  Weight of mice, Day 4: 20.62 ± 0.28 g
[1]; [6]
  Weight change rate, Day 7: −1.73 ± 0.99 %
  Weight of mice, Day 7: 20.43 ± 0.27 g
[1]; [7]
  Weight change rate, Day 9: 1.99 ± 1.71 %
  Weight of mice, Day 9: 21.03 ± 0.23 g
[1]; [8]
  Weight change rate, Day 11: 3.60 ± 1.31%
  Weight of mice, Day 11: 21.32 ± 0.26 g
[1]; [9]
  Weight change rate, Day 14: 1.54 ± 2.06 %
  Weight of mice, Day 14: 20.87 ± 0.22 g
[1]; [10]
  Weight change rate, Day 16: 2.61 ± 2.41%
  Weight of mice, Day 16: 21.02 ± 0.33 g
[1]; [11]
  Weight change rate, Day 18: 6.99 ± 2.87 %
  Weight of mice, Day 18: 21.80 ± 0.44 g
[1]; [12]
  Weight change rate, Day 21: 5.42 ± 2.41 %
  Weight of mice, Day 21: 21.55 ± 0.34 g
[1]; Day 22, single IP dose (mg/kg)
  Day 22 Mortality: 0%
[1]; [13]
  Weight change rate, Day 23: 7.14 ± 3.88%
  Weight of mice, Day 23: 21.78 ± 0.58 g
[1]; [14]
  Weight change rate, Day 25: 7.62 ± 3.76%
  Weight of mice, Day 25: 21.83 ± 0.59 g
[1]; [15]
  Weight change rate, Day 28: 3.66 ± 3.27%
  Weight of mice, Day 28: 21.27 ± 0.43 g
[1]; [16]
  Weight change rate, Day 30: 4.94 ± 2.45%
  Weight of mice, Day 30: 21.20 ± 0.60 g
[1]; after single IP dose, compared with model control group
  clinical symptoms: no significant differences in clinical symptoms
[2]; Day 0
  Day 0 (RTV): 1.00
[2]; Day 0, Mean±SEM
  Tumor volume, Day 0: 52.57 ± 10.93** mm^3
[2]; Day 1
  Day 1 (TGI %): 63.52%
[2]; Day 1, Mean±SEM
  Day 1 (RTV): 1.25 ± 0.20
  Tumor volume, Day 1: 65.85 ± 18.30** mm^3
[2]; Day 2
  Day 2 (TGI %): 56.02%
[2]; Day 2, Mean±SEM
  Day 2 (RTV): 2.10 ± 0.74
  Tumor volume, Day 2: 97.57 ± 24.94** mm^3
[2]; Day 4
  Day 4 (TGI %): 52.31%
[2]; Day 4, Mean±SEM
  Day 4 (RTV): 3.10 ± 1.46
[2]; Day 7
  Day 7 (TGI %): 45.07%
[2]; Day 7, Mean±SEM
  Day 7 (RTV): 5.12 ± 2.41
  Tumor volume, Day 7: 237.57 ± 74.65* mm^3
[2]; Day 9
  Day 9 (TGI %): 33.79%
[2]; Day 9, Mean±SEM
  Day 9 (RTV): 8.09 ± 3.62
  Tumor volume, Day 9: 390.87 ± 115.68 mm^3
[2]; Day 11
  Day 11 (TGI %): 36.38%
[2]; Day 11, Mean±SEM
  Day 11 (RTV): 12.66 ± 5.21
  Tumor volume, Day 11: 621.03 ± 173.32 mm^3
[2]; Day 14
  Day 14 (TGI %): 27.91%
[2]; Day 14, Mean±SEM
  Day 14 (RTV): 20.81 ± 7.22
  Tumor volume, Day 14: 1038.23 ± 262.72 mm^3
[2]; Day 16
  Day 16 (TGI %): 27.25%
[2]; Day 16, Mean±SEM
  Day 16 (RTV): 26.35 ± 8.64
  Tumor volume, Day 16: 1317.52 ± 322.74 mm^3
[2]; Day 18
  Day 18 (TGI %): 21.59%
[2]; Day 18, Mean±SEM
  Day 18 (RTV): 31.97 ± 10.14
  Tumor volume, Day 18: 1566.87 ± 378.64 mm^3
[2]; Day 21
  Day 21 (TGI %): 23.19%
[2]; Day 21, Mean±SEM
  Day 21 (RTV): 38.61 ± 9.84
  Tumor volume, Day 21: 1877.91 ± 388.81 mm^3
[2]; Day 23
  Day 23 (TGI %): 18.55%
[2]; Day 23, Mean±SEM
  Day 23 (RTV): 39.81 ± 9.58
  Tumor volume, Day 23: 1923.55 ± 392.05 mm^3
[2]; Day 25
  Day 25 (TGI %): 18.29%
[2]; Day 25, Mean±SEM
  Day 25 (RTV): 43.89 ± 10.29
  Tumor volume, Day 25: 2110.15 ± 421.51 mm^3
[2]; Day 28
  Day 28 (TGI %): 38.94%
[2]; Day 28, Mean±SEM
  Day 28 (RTV): 39.62 ± 10.42
  Tumor volume, Day 28: 1642.01 ± 659.32 mm^3
[2]; Day 30
  Day 30 (TGI %): 52.84%
[2]; Day 30, Mean±SEM
  Day 30 (RTV): 38.70 ± 10.60
  Tumor volume, Day 30: 1323.36 ± 626.45 mm^3
